Numbered stars: 1 amine (or outer) side, 2 acyl side, 3 side chain; on linkers, the order of the positions; unused ones are H or OH. Bridge positions count the residues as written; N and C are the ends. Square brackets hold non-standard residues; d marks the D form. Peptide text beside a SMILES is read from it. * marks the point of attachment. Bip = N[C@@H](Cc1ccc(-c2ccccc2)cc1)C(=O)O; Phe(3-Me) = Cc1cccc(C[C@H](N)C(=O)O)c1; γGlu = O=C(O)[C@H](CCC(=O)[*:2])N[*:1]; βAsp = O=C(O)[C@H](CC(=O)[*:2])N[*:1]; Cha = N[C@@H](CC1CCCCC1)C(=O)O; Cit = NC(=O)NCCC[C@H](N)C(=O)O; Carboxymethyl = O=C(O)C*; Orn = NCCC[C@H](N)C(=O)O; Aun = NCCCCCCCCCCC(=O)O; Dab = NCC[C@H](N)C(=O)O; Dap = NC[C@H](N)C(=O)O; AEEA = NCCOCCOCC(=O)O

T1 sequence (Q15116 25-288): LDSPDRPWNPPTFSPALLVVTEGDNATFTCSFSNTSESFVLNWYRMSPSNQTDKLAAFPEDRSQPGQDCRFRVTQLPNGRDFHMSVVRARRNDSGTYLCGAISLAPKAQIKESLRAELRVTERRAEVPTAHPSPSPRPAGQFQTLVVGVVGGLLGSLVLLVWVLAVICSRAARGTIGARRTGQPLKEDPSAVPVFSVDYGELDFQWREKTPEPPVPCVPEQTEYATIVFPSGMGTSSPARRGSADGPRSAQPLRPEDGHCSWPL

The test addresses T1, PD-1/PD-L1 interaction (PE-labeled human PD-L1-Ig binding to Jurkat cell line over-expressing human PD-1) (Homo sapiens, UniProt Q15116).
T1 construct: expressed in transfected cells; host or cells: Jurkat
Briefly: Jurkat-PD-1 Cell Binding High-Content Screening Assay (CBA). It is filed as cell-based. As to conditions: Jurkat cell line over-expressing human PD-1; PE-labeled PD-L1-Ig 20 nM final; read-out: Jurkat hPD1-PDL1 IC50. Here is the method:
Example 2: Jurkat-PD-1 Cell Binding High-Content Screening Assay (CBA)
Phycoerythrin (PE) was covalently linked to the Ig epitope tag of human PD-L1-Ig and fluorescently-labeled PD-L1-Ig was used for binding studies with a Jurkat cell line over-expressing human PD-1 (Jurkat-PD-1). Briefly, 8×10^3 Jurkat-hPD-1 cells were seeded into 384 well plates in 20 μl of DMEM supplemented with 10% fetal calf serum. 100 nl of compound was added to cells followed by incubation at 37° C. for 2 h. Then, 5 μl of PE-labeled PD-L1-Ig (20 nM final), diluted in DMEM supplemented with 10% fetal calf serum. After 1 hour incubation, cells were fixed with 4% paraformaldehyde in dPBS containing 10 μg/ml Hoechst 33342 and then washed 3× in 100 μl dPBS. Data was collected and processed using a Cell Insight NXT High Content Imager and associated software.
As a reminder, the IC50 is the concentration at which inhibition is half-maximal. As for `Cc1cccc(C[C@@H]2NC(=O)[C@H](CC(=O)O)NC(=O)[C@H](Cc3ccc(OCC(=O)O)cc3)NC(=O)[C@H](CN)NC(=O)CSC[C@@H](C(=O)N[C@@H](C)C(=O)N[C@@H](CCC(=O)O)C(=O)NCCOCCOCC(=O)NCCCCCCCCCCC(=O)O)NC(=O)[C@H]([C@@H](C)O)NC(=O)[C@H](C(C)C)NC(=O)[C@H](CC3CCCCC3)NC(=O)[C@H](CCN)NC(=O)[C@@H](CC(C)C)NC(=O)[C@H](CCCN)NC(=O)[C@H](CCCNC(N)=O)NC(=O)[C@H](Cc3ccc(-c4ccccc4)cc3)NC(=O)[C@H](C(C)C)NC2=O)c1` [Compound 1004] ({CH2CO}-[Dap]Y(Carboxymethyl)D[Phe(3-Me)]V[Bip][Cit][Orn][dL][Dab][Cha]VTCAE[AEEA][Aun]-OH; thioether N-14), the half-maximal inhibitory concentration (IC50) is 2.6 nM.
Consider `Cc1cccc(C[C@@H]2NC(=O)[C@H](CC(=O)O)NC(=O)[C@H](Cc3ccc(OCC(=O)O)cc3)NC(=O)[C@H](CN)NC(=O)CSC[C@@H](C(=O)N[C@@H](C)C(=O)N[C@@H](CCC(=O)O)C(=O)NCCCCCCCCCCC(=O)O)NC(=O)[C@H]([C@@H](C)O)NC(=O)[C@H](C(C)C)NC(=O)[C@H](CC3CCCCC3)NC(=O)[C@H](CCN)NC(=O)[C@@H](CC(C)C)NC(=O)[C@H](CCCN)NC(=O)[C@H](CCCNC(N)=O)NC(=O)[C@H](Cc3ccc(-c4ccccc4)cc3)NC(=O)[C@H](C(C)C)NC2=O)c1` [Compound 1005] ({CH2CO}-[Dap]Y(Carboxymethyl)D[Phe(3-Me)]V[Bip][Cit][Orn][dL][Dab][Cha]VTCAE[Aun]-OH; thioether N-14), for which the IC50 amounted to 1.1 nM.
As for `Cc1cccc(C[C@@H]2NC(=O)[C@H](CC(=O)O)NC(=O)[C@H](Cc3ccc(OCC(=O)O)cc3)NC(=O)[C@H](CN)NC(=O)CSC[C@@H](C(=O)N[C@@H](C)C(=O)N[C@@H](CC(=O)O)C(=O)NCCCCCCCCCCC(=O)O)NC(=O)[C@H]([C@@H](C)O)NC(=O)[C@H](C(C)C)NC(=O)[C@H](CC3CCCCC3)NC(=O)[C@H](CCN)NC(=O)[C@@H](CC(C)C)NC(=O)[C@H](CCCN)NC(=O)[C@H](CCCNC(N)=O)NC(=O)[C@H](Cc3ccc(-c4ccccc4)cc3)NC(=O)[C@H](C(C)C)NC2=O)c1` [Compound 1006] ({CH2CO}-[Dap]Y(Carboxymethyl)D[Phe(3-Me)]V[Bip][Cit][Orn][dL][Dab][Cha]VTCAD[Aun]-OH; thioether N-14), the figure is 9.2 nM; as for `Cc1cccc(C[C@@H]2NC(=O)[C@H](CC(=O)O)NC(=O)[C@H](Cc3ccc(OCC(=O)O)cc3)NC(=O)[C@H](CN)NC(=O)CSC[C@@H](C(=O)N[C@@H](C)C(=O)NCCOCCOCC(=O)N[C@@H](CCC(=O)O)C(=O)NCCCCCCCCCCC(=O)O)NC(=O)[C@H]([C@@H](C)O)NC(=O)[C@H](C(C)C)NC(=O)[C@H](CC3CCCCC3)NC(=O)[C@H](CCN)NC(=O)[C@@H](CC(C)C)NC(=O)[C@H](CCCN)NC(=O)[C@H](CCCNC(N)=O)NC(=O)[C@H](Cc3ccc(-c4ccccc4)cc3)NC(=O)[C@H](C(C)C)NC2=O)c1` [Compound 1007] ({CH2CO}-[Dap]Y(Carboxymethyl)D[Phe(3-Me)]V[Bip][Cit][Orn][dL][Dab][Cha]VTCA[AEEA]E[Aun]-OH; thioether N-14), 7.9 nM.
As for `Cc1cccc(C[C@@H]2NC(=O)[C@H](CC(=O)O)NC(=O)[C@H](Cc3ccc(OCC(=O)O)cc3)NC(=O)[C@H](CN)NC(=O)CSC[C@@H](C(=O)N[C@@H](C)C(=O)N[C@@H](CC(=O)O)C(=O)NCCOCCOCC(=O)NCCCCCCCCCCC(=O)O)NC(=O)[C@H]([C@@H](C)O)NC(=O)[C@H](C(C)C)NC(=O)[C@H](CC3CCCCC3)NC(=O)[C@H](CCN)NC(=O)[C@@H](CC(C)C)NC(=O)[C@H](CCCN)NC(=O)[C@H](CCCNC(N)=O)NC(=O)[C@H](Cc3ccc(-c4ccccc4)cc3)NC(=O)[C@H](C(C)C)NC2=O)c1` [Compound 1008] ({CH2CO}-[Dap]Y(Carboxymethyl)D[Phe(3-Me)]V[Bip][Cit][Orn][dL][Dab][Cha]VTCAD[AEEA][Aun]-OH; thioether N-14), the figure is 10.5 nM; as for `Cc1cccc(C[C@@H]2NC(=O)[C@H](CC(=O)O)NC(=O)[C@H](Cc3ccc(OCC(=O)O)cc3)NC(=O)[C@H](CN)NC(=O)CSC[C@@H](C(=O)N[C@@H](C)C(=O)N[C@@H](CC(=O)NCCOCCOCC(=O)NCCCCCCCCCCC(=O)O)C(=O)O)NC(=O)[C@H]([C@@H](C)O)NC(=O)[C@H](C(C)C)NC(=O)[C@H](CC3CCCCC3)NC(=O)[C@H](CCN)NC(=O)[C@@H](CC(C)C)NC(=O)[C@H](CCCN)NC(=O)[C@H](CCCNC(N)=O)NC(=O)[C@H](Cc3ccc(-c4ccccc4)cc3)NC(=O)[C@H](C(C)C)NC2=O)c1` [Compound 1010] ({CH2CO}-[Dap]Y(Carboxymethyl)D[Phe(3-Me)]V[Bip][Cit][Orn][dL][Dab][Cha]VTCA[βAsp][AEEA][Aun]-OH; thioether N-14), 6.3 nM; as for `Cc1cccc(C[C@@H]2NC(=O)[C@H](CC(=O)O)NC(=O)[C@H](Cc3ccc(OCC(=O)O)cc3)NC(=O)[C@H](CN)NC(=O)CSC[C@@H](C(=O)N[C@@H](C)C(=O)N[C@@H](CCC(=O)NCC(=O)NCCCCCCCCCCC(=O)O)C(=O)O)NC(=O)[C@H]([C@@H](C)O)NC(=O)[C@H](C(C)C)NC(=O)[C@H](CC3CCCCC3)NC(=O)[C@H](CCN)NC(=O)[C@@H](CC(C)C)NC(=O)[C@H](CCCN)NC(=O)[C@H](CCCNC(N)=O)NC(=O)[C@H](Cc3ccc(-c4ccccc4)cc3)NC(=O)[C@H](C(C)C)NC2=O)c1` [Compound 1011] ({CH2CO}-[Dap]Y(Carboxymethyl)D[Phe(3-Me)]V[Bip][Cit][Orn][dL][Dab][Cha]VTCA[γGlu]G[Aun]-OH; thioether N-14), 8.8 nM.
Regarding `Cc1cccc(C[C@@H]2NC(=O)[C@H](CC(=O)O)NC(=O)[C@H](Cc3ccc(OCC(=O)O)cc3)NC(=O)[C@H](CN)NC(=O)CSC[C@@H](C(=O)N[C@@H](C)C(=O)N[C@@H](CC(=O)NCC(=O)NCCCCCCCCCCC(=O)O)C(=O)O)NC(=O)[C@H]([C@@H](C)O)NC(=O)[C@H](C(C)C)NC(=O)[C@H](CC3CCCCC3)NC(=O)[C@H](CCN)NC(=O)[C@@H](CC(C)C)NC(=O)[C@H](CCCN)NC(=O)[C@H](CCCNC(N)=O)NC(=O)[C@H](Cc3ccc(-c4ccccc4)cc3)NC(=O)[C@H](C(C)C)NC2=O)c1` [Compound 1012] ({CH2CO}-[Dap]Y(Carboxymethyl)D[Phe(3-Me)]V[Bip][Cit][Orn][dL][Dab][Cha]VTCA[βAsp]G[Aun]-OH; thioether N-14), the IC50 turned out to be 5 nM.
Consider `Cc1cccc(C[C@@H]2NC(=O)[C@H](CC(=O)O)NC(=O)[C@H](Cc3ccc(OCC(=O)O)cc3)NC(=O)[C@H](CN)NC(=O)CSC[C@@H](C(=O)N[C@@H](C)C(=O)N[C@@H](CC(=O)O)C(=O)NCCOCCOCC(=O)N[C@@H](CC(=O)O)C(=O)NCCOCCOCC(=O)NCCCCCCCCCCC(=O)O)NC(=O)[C@H]([C@@H](C)O)NC(=O)[C@H](C(C)C)NC(=O)[C@H](CC3CCCCC3)NC(=O)[C@H](CCN)NC(=O)[C@@H](CC(C)C)NC(=O)[C@H](CCCN)NC(=O)[C@H](CCCNC(N)=O)NC(=O)[C@H](Cc3ccc(-c4ccccc4)cc3)NC(=O)[C@H](C(C)C)NC2=O)c1` [Compound 1013] ({CH2CO}-[Dap]Y(Carboxymethyl)D[Phe(3-Me)]V[Bip][Cit][Orn][dL][Dab][Cha]VTCAD[AEEA]D[AEEA][Aun]-OH; thioether N-14), for which the IC50 is 11.9 nM.

The values above are taken from patent publication US20260022142A1, “MACROCYCLIC IMMUNOMODULATORS” (Bristol-Myers Squibb Company, priority 2022, published 2026).
